We go through 2 compounds from paper PMC4620497 (Scientific Reports, 2015).

In one experiment the target is T1, ERBB4 (Homo sapiens, UniProt Q15303).
T1 construct: purchased DiscoveRx KINOMEscan (Ambit Biosciences)
More on the design: method as in earlier work. The following applies: Table S1; cited from earlier work.

Experiment [1] has as its target T2, ABL1(F317I)-phosphorylated (Homo sapiens, UniProt P00519, F317I).
T2 construct: purchased DiscoveRx KINOMEscan (Ambit Biosciences)
As to the kind of experiment: KINOMEscan panel screen. The experiment is classed as binding. The settings on record: read-out: Percent Control(%).

The next experiment has as its target T3, ACVRL1 (Homo sapiens, UniProt P37023).
T3 construct: purchased DiscoveRx KINOMEscan (Ambit Biosciences)
As to the kind of experiment: KINOMEscan panel screen. The experiment is classed as binding. The following applies: read-out: Percent Control(%).

The target in the next experiment is T4, ADCK3 (Homo sapiens, UniProt Q8NI60).
T4 construct: purchased DiscoveRx KINOMEscan (Ambit Biosciences)
As to the kind of experiment: KINOMEscan panel screen. The following applies: read-out: Percent Control(%). The experiment is classed as binding.

A further experiment has as its target T5, BRAF (Homo sapiens, UniProt P15056).
T5 construct: purchased DiscoveRx KINOMEscan (Ambit Biosciences)
In words: KINOMEscan panel screen. Format: binding. The settings on record: read-out: Percent Control(%).

A further experiment addresses T6, BRSK2 (Homo sapiens, UniProt Q8IWQ3).
T6 construct: purchased DiscoveRx KINOMEscan (Ambit Biosciences)
As to the kind of experiment: KINOMEscan panel screen. The following applies: read-out: Percent Control(%). Format: binding.

A further experiment addresses T7, CAMK1G (Homo sapiens, UniProt Q96NX5).
T7 construct: purchased DiscoveRx KINOMEscan (Ambit Biosciences)
As to the kind of experiment: KINOMEscan panel screen. Format: binding. The following applies: read-out: Percent Control(%).

In a further experiment the target is T8, CAMK2D (Homo sapiens, UniProt Q13557).
T8 construct: purchased DiscoveRx KINOMEscan (Ambit Biosciences)
As to the kind of experiment: KINOMEscan panel screen. Format: binding. The following applies: read-out: Percent Control(%).

Another experiment addresses T9, CDK4-cyclinD3 (Homo sapiens, UniProt P11802).
T9 construct: purchased DiscoveRx KINOMEscan (Ambit Biosciences)
As to the kind of experiment: KINOMEscan panel screen. Format: binding. The settings on record: read-out: Percent Control(%).

For the next experiment, the target named is T10, CSNK1G3 (Homo sapiens, UniProt Q9Y6M4).
T10 construct: purchased DiscoveRx KINOMEscan (Ambit Biosciences)
T10 sequence (Q9Y6M4 whole entry): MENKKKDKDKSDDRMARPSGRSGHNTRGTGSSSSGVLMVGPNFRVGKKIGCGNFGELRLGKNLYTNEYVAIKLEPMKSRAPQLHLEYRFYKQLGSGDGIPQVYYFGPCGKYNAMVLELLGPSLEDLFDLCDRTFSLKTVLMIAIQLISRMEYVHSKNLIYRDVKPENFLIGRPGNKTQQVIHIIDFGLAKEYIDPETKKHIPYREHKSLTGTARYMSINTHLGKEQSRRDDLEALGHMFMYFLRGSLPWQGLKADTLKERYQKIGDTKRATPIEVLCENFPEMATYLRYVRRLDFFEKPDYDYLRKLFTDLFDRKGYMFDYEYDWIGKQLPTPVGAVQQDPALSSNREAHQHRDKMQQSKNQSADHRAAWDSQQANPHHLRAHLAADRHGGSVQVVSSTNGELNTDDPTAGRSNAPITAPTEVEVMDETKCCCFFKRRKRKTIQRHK
As to the kind of experiment: KINOMEscan panel screen. Format: binding. The following applies: read-out: Percent Control(%).

For a further experiment, the target named is T11, DMPK2 (Homo sapiens, UniProt Q6DT37).
T11 construct: purchased DiscoveRx KINOMEscan (Ambit Biosciences)
As to the kind of experiment: KINOMEscan panel screen. Format: binding. The settings on record: read-out: Percent Control(%).

In experiment [2] the target is T12, EGFR(L747-S752del, P753S) (Homo sapiens, UniProt P00533, DEL747-752/P753S).
T12 construct: purchased DiscoveRx KINOMEscan (Ambit Biosciences)
T12 sequence (P00533 with tags, fused parts or gaps DEL747-752/P753S limits assumed): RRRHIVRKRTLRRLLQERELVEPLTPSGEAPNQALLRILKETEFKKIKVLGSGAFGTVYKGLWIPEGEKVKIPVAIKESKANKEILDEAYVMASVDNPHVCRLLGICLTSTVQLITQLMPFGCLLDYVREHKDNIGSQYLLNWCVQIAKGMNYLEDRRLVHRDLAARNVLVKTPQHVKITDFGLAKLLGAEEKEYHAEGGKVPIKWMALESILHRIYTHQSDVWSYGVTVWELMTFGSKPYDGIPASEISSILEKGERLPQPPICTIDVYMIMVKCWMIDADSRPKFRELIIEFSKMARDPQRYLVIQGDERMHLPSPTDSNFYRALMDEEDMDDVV
As to the kind of experiment: KINOMEscan panel screen. Format: binding. The following applies: read-out: Percent Control(%).

Another experiment addresses T13, EGFR(L858R) (Homo sapiens, UniProt P00533, L858R).
T13 construct: purchased DiscoveRx KINOMEscan (Ambit Biosciences)
In words: KINOMEscan panel screen. The experiment is classed as binding. The following applies: read-out: Percent Control(%).

The next experiment concerns the target T14, EGFR(L858R,T790M) (Homo sapiens, UniProt P00533, L858R/T790M).
T14 construct: purchased DiscoveRx KINOMEscan (Ambit Biosciences)
In words: KINOMEscan panel screen. The experiment is classed as binding. The settings on record: read-out: Percent Control(%).

Another experiment deals with T15, FGFR4 (Homo sapiens, UniProt P22455).
T15 construct: purchased DiscoveRx KINOMEscan (Ambit Biosciences)
As to the kind of experiment: KINOMEscan panel screen. The following applies: read-out: Percent Control(%). Format: binding.

In the next experiment the target is T16, FLT3 (Homo sapiens, UniProt P36888).
T16 construct: purchased DiscoveRx KINOMEscan (Ambit Biosciences)
As to the kind of experiment: KINOMEscan panel screen. Format: binding. The settings on record: read-out: Percent Control(%).

The target in a further experiment is T17, FLT3(K663Q) (Homo sapiens, UniProt P36888, K663Q).
T17 construct: purchased DiscoveRx KINOMEscan (Ambit Biosciences)
As to the kind of experiment: KINOMEscan panel screen. Format: binding. The settings on record: read-out: Percent Control(%).

A further experiment concerns the target T18, FLT3-autoinhibited (Homo sapiens, UniProt P36888).
T18 construct: purchased DiscoveRx KINOMEscan (Ambit Biosciences)
As to the kind of experiment: KINOMEscan panel screen. Format: binding. The settings on record: read-out: Percent Control(%).

The target in another experiment is T19, FLT4 (Homo sapiens, UniProt P35916).
T19 construct: purchased DiscoveRx KINOMEscan (Ambit Biosciences)
In words: KINOMEscan panel screen. The following applies: read-out: Percent Control(%). The experiment is classed as binding.

A further experiment addresses T20, KIT(V559D,T670I) (Homo sapiens, UniProt P10721, T670I/V559D).
T20 construct: purchased DiscoveRx KINOMEscan (Ambit Biosciences)
As to the kind of experiment: KINOMEscan panel screen. Format: binding. The settings on record: read-out: Percent Control(%).

The target in another experiment is T21, LKB1 (Homo sapiens, UniProt Q15831).
T21 construct: purchased DiscoveRx KINOMEscan (Ambit Biosciences)
In words: KINOMEscan panel screen. Format: binding. The settings on record: read-out: Percent Control(%).

A further experiment has as its target T22, MYLK (Homo sapiens, UniProt Q15746).
T22 construct: purchased DiscoveRx KINOMEscan (Ambit Biosciences)
In words: KINOMEscan panel screen. The experiment is classed as binding. The settings on record: read-out: Percent Control(%).

A further experiment concerns the target T23, NEK6 (Homo sapiens, UniProt Q9HC98).
T23 construct: purchased DiscoveRx KINOMEscan (Ambit Biosciences)
In words: KINOMEscan panel screen. The following applies: read-out: Percent Control(%). The experiment is classed as binding.

The next experiment concerns the target T24, NEK7 (Homo sapiens, UniProt Q8TDX7).
T24 construct: purchased DiscoveRx KINOMEscan (Ambit Biosciences)
In words: KINOMEscan panel screen. Format: binding. The following applies: read-out: Percent Control(%).

Another experiment addresses T25, NIK (Homo sapiens, UniProt Q99558).
T25 construct: purchased DiscoveRx KINOMEscan (Ambit Biosciences)
In words: KINOMEscan panel screen. The settings on record: read-out: Percent Control(%). Format: binding.

Another experiment concerns the target T26, p38-alpha (Homo sapiens, UniProt Q16539).
T26 construct: purchased DiscoveRx KINOMEscan (Ambit Biosciences)
In words: KINOMEscan panel screen. The experiment is classed as binding. The following applies: read-out: Percent Control(%).

Another experiment has as its target T27, p38-beta (Homo sapiens, UniProt Q15759).
T27 construct: purchased DiscoveRx KINOMEscan (Ambit Biosciences)
In words: KINOMEscan panel screen. The experiment is classed as binding. The following applies: read-out: Percent Control(%).

For another experiment, the target named is T28, PAK4 (Homo sapiens, UniProt O96013).
T28 construct: DNA tag (qPCR read-out); purchased Ambit Biosciences (KINOMEscan service)
In words: KINOMEscan panel screen. The settings on record: read-out: Percent Control(%). The experiment is classed as binding.

The target in a further experiment is T29, PCTK3 (Homo sapiens, UniProt Q07002).
T29 construct: purchased DiscoveRx KINOMEscan (Ambit Biosciences)
As to the kind of experiment: KINOMEscan panel screen. The settings on record: read-out: Percent Control(%). The experiment is classed as binding.

The next experiment concerns the target T30, PIK3CA(I800L) (Homo sapiens, UniProt P42336, I800L).
T30 construct: purchased DiscoveRx KINOMEscan (Ambit Biosciences)
In words: KINOMEscan panel screen. The settings on record: read-out: Percent Control(%). Format: binding.

The target in the next experiment is T31, PIM3 (Homo sapiens, UniProt Q86V86).
T31 construct: purchased DiscoveRx KINOMEscan (Ambit Biosciences)
In words: KINOMEscan panel screen. The experiment is classed as binding. The following applies: read-out: Percent Control(%).

For another experiment, the target named is T32, PRKR (Homo sapiens, UniProt P19525).
T32 construct: purchased DiscoveRx KINOMEscan (Ambit Biosciences)
T32 sequence (P19525 whole entry): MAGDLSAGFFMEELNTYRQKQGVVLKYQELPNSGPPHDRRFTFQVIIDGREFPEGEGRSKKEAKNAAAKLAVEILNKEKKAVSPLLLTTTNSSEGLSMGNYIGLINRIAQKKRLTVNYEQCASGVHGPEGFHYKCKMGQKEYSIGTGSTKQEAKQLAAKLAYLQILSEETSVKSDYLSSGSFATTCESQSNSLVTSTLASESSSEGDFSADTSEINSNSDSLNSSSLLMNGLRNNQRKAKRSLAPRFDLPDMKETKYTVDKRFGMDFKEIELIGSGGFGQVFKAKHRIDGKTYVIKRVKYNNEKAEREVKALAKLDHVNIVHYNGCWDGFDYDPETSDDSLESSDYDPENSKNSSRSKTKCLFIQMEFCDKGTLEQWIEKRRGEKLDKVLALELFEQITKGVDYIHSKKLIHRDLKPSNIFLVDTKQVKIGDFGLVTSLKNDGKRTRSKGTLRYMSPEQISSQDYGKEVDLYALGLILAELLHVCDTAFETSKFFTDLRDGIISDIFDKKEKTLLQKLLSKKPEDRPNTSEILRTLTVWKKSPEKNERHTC
As to the kind of experiment: KINOMEscan panel screen. The settings on record: read-out: Percent Control(%). Format: binding.

For a further experiment, the target named is T33, RET(M918T) (Homo sapiens, UniProt P07949, M918T).
T33 construct: purchased DiscoveRx KINOMEscan (Ambit Biosciences)
In words: KINOMEscan panel screen. The experiment is classed as binding. The settings on record: read-out: Percent Control(%).

Experiment [3] addresses T34, RSK4(Kin.Dom.2-C-terminal) (Homo sapiens, UniProt Q9UK32).
T34 construct: RSK4(Kin.Dom.2-C-terminal); purchased DiscoveRx KINOMEscan (Ambit Biosciences)
In words: KINOMEscan panel screen. The experiment is classed as binding. The following applies: read-out: Percent Control(%).

In the next experiment the target is T35, SGK (Homo sapiens, UniProt O00141).
T35 construct: purchased DiscoveRx KINOMEscan (Ambit Biosciences)
As to the kind of experiment: KINOMEscan panel screen. The experiment is classed as binding. The following applies: read-out: Percent Control(%).

The target of another experiment is T36, STK33 (Homo sapiens, UniProt Q9BYT3).
T36 construct: purchased DiscoveRx KINOMEscan (Ambit Biosciences)
As to the kind of experiment: KINOMEscan panel screen. The experiment is classed as binding. The settings on record: read-out: Percent Control(%).

The next experiment deals with T37, WNK1 (Homo sapiens, UniProt Q9H4A3).
T37 construct: purchased DiscoveRx KINOMEscan (Ambit Biosciences)
T37 sequence (Q9H4A3 whole entry): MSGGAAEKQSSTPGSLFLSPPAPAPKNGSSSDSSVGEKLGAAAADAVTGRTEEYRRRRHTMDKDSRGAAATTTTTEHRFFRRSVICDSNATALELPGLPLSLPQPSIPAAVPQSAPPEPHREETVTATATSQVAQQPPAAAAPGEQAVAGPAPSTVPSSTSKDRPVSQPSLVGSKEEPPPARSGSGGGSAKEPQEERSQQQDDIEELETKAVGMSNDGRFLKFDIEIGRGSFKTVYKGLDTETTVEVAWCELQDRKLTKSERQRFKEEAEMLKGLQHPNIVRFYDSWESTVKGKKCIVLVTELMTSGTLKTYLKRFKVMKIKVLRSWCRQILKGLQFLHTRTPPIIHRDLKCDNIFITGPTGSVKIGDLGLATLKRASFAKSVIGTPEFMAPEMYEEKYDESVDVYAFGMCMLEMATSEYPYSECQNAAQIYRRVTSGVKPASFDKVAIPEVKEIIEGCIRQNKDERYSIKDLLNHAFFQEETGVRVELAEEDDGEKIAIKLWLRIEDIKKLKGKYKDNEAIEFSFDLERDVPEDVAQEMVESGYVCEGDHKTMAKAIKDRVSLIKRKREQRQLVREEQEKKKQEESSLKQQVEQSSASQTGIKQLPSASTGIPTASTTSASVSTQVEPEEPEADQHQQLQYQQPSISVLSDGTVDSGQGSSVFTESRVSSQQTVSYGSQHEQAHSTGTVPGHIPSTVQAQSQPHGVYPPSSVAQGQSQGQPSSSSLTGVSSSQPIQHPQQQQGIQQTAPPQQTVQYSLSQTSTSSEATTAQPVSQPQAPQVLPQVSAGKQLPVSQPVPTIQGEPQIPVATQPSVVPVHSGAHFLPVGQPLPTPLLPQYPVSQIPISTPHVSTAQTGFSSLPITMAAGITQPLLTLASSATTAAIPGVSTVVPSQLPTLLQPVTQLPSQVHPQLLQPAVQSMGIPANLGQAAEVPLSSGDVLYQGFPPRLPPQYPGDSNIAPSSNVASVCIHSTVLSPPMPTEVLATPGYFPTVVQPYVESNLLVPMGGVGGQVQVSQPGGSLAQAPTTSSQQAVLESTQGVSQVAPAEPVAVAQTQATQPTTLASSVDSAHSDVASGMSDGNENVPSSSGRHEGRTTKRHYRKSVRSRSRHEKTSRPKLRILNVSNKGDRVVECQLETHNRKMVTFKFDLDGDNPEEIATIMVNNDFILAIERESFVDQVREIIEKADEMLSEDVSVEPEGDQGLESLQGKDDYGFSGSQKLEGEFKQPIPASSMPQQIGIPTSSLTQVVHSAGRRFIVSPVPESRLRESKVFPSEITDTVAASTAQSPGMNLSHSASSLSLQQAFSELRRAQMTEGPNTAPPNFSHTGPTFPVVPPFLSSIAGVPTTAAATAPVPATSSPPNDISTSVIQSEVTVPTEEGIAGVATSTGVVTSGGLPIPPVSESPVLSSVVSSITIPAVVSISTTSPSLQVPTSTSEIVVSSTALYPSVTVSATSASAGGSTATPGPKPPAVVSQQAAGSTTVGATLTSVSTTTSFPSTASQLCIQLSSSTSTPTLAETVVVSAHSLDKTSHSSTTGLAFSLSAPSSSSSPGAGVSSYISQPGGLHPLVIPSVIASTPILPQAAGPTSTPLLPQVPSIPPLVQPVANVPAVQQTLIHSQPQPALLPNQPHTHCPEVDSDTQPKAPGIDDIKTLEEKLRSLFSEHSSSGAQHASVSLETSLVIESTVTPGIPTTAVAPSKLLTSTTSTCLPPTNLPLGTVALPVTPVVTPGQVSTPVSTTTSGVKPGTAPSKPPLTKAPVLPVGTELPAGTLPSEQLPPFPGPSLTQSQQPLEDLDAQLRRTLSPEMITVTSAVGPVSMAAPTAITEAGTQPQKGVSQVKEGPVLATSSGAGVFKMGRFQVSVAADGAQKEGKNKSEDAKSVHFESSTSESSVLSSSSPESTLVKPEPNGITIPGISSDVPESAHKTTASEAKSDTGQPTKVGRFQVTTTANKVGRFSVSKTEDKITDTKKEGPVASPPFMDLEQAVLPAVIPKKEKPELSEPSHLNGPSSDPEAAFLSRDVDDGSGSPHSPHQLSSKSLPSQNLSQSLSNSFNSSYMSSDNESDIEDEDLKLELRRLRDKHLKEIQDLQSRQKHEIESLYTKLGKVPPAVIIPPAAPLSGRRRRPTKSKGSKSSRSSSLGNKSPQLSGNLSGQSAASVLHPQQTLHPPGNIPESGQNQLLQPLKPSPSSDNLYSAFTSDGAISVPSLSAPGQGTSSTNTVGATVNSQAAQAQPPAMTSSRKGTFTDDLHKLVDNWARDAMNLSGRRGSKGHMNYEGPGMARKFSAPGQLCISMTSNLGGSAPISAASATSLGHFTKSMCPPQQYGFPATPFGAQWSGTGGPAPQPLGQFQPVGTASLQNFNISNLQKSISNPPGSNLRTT
As to the kind of experiment: KINOMEscan panel screen. The settings on record: read-out: Percent Control(%). Format: binding.

The target of a further experiment is T38, YSK1 (Homo sapiens, UniProt O00506).
T38 construct: purchased DiscoveRx KINOMEscan (Ambit Biosciences)
As to the kind of experiment: KINOMEscan panel screen. The experiment is classed as binding. The settings on record: read-out: Percent Control(%).

A further experiment relates to Ramos. In words: MTT cell viability assay. The settings on record: Homo sapiens, 72 h. On the technique in general: Tetrazolium assays rely on reduction of a dye to a coloured formazan, in cell work by metabolically active cells.
A further experiment deals with PC-9. In words: MTT cell viability assay. The following applies: Homo sapiens, PC-9, 72 h.
Another experiment has as its system HepG2. In words: MTT cell viability assay. The following applies: Homo sapiens, HepG2, 72 h.

Bounds are passed on as bounds.

T9 sequence (P11802 whole entry): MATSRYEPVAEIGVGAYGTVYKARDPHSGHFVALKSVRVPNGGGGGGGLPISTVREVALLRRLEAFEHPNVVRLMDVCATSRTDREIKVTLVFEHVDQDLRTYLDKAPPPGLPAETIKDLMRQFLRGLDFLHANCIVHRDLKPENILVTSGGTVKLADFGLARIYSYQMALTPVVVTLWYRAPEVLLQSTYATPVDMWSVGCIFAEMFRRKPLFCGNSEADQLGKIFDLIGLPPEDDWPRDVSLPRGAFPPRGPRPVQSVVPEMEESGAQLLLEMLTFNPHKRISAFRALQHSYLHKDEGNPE
T9 sequence (P30281 whole entry partner): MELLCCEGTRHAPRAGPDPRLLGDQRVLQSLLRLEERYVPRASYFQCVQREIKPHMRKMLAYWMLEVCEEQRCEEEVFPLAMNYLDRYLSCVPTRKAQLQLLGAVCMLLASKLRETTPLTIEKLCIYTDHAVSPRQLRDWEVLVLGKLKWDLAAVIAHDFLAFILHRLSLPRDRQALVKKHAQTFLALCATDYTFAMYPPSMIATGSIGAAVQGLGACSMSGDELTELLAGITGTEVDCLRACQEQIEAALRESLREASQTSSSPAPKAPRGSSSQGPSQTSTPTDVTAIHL
T3 sequence (P37023 22-503): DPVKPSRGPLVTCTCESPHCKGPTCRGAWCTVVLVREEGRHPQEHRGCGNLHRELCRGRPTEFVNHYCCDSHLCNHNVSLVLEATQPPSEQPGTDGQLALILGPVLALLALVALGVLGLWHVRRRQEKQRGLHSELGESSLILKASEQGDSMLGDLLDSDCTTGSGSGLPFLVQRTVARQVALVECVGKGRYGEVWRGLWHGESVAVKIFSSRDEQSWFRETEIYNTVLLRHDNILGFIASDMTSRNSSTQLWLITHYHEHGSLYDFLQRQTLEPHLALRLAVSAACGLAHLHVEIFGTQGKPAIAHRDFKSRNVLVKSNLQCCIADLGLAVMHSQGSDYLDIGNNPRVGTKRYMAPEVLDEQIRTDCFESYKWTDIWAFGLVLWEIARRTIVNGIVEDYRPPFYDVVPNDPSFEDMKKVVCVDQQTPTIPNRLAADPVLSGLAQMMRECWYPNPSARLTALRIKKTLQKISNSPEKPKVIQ
T34 sequence (Q9UK32 426-683 limits assumed): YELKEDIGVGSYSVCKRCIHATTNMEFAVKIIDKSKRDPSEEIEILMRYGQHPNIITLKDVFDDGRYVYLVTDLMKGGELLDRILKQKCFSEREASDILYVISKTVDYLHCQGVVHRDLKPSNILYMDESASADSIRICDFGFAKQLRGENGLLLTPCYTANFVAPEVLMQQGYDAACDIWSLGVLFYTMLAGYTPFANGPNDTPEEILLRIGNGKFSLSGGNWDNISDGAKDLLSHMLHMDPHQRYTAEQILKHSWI

In general, IC50 refers to the concentration that inhibits the measured activity by half. Regarding `O=C(Nc1ccc(Oc2ncnc3[nH]ncc23)cc1)Nc1ccc(Cl)c(C(F)(F)F)c1` [Compound 1, 1-(4-(1H-pyrazolo[3,4-d]pyrimidin-4-yloxy)phenyl)-3-(4-chloro-3-(trifluoromethyl)phenyl)urea], the 50% inhibitory concentration (IC50) at ERBB4 is above 10 µM.
For `CC(C)(C)c1cc(NC(=O)Nc2ccc(Oc3ncnc4[nH]ncc34)c(F)c2)no1` [SKLB-677, 1-(4-(1H-pyrazolo[3,4-d]pyrimidin-4-yloxy)-3-fluorophenyl)-3-(5-tert-butylisoxazol-3-yl)urea], the remaining binding at 10 µM in [1] turned out to be 43%; on ACVRL1, 91%; at ADCK3, 100%; at BRAF it was 2.7%; at BRSK2, 76%; on CAMK1G it was 48%. Moreover, the remaining binding at 10 µM on CAMK2D worked out at 100%; at CDK4-cyclinD3, 4.8%; on CSNK1G3 it was 70%; on DMPK2, 50%; in experiment [2], 38%; on EGFR(L858R) it was 29%. Moreover, the remaining binding at 10 µM at EGFR(L858R,T790M) turned out to be 75%; on FGFR4, 4.8%; at FLT3 it was 2%; on FLT3(K663Q) it was 1.8%; on FLT3-autoinhibited, 1.2%; on FLT4, 0%. For the same compound, the remaining binding at 10 µM at KIT(V559D,T670I) came out at 0.1%; at LKB1, 96%; at MYLK, 40%; at NEK6 it was 99%; at NEK7 it was 48%; at NIK, 90%. Also, the remaining binding at 10 µM is 0% at p38-alpha; 0.2% at p38-beta; 100% on PAK4; 0.05% on PCTK3; 87% at PIK3CA(I800L); 40% at PIM3. The remaining binding at 10 µM at PRKR was 57%; at RET(M918T) it was 0%; in experiment [3] it was 72%; at SGK, 29%; at STK33 it was 0.05%; on WNK1, 100%. Further, on YSK1, the remaining binding at 10 µM came to 35%. In addition, the IC50 is 8.4 µM in the experiment on Ramos, 8.03 µM with PC-9 and 6.7 µM with HepG2.
